Laboratory results as given in publication PMC4121618 (Molecular Pain, 2014).
Read-outs that look alike come from different tables or passages of the source.

What was measured:
KOP receptor [1] = molecular target: T1, KOP receptor (Rattus norvegicus, UniProt P34975); assay: Radioligand binding assay, KOP receptor, rat brain membranes ([3H]U69,593); conditions: for Selectivity ratio KOP/MOP: Ki ratio, rat brain membranes
T1 construct: from tissue; host or cells: Sprague-Dawley rat brain membranes

DOP receptor [2] = molecular target: T2, DOP receptor (Rattus norvegicus, UniProt P33533); assay: Radioligand binding assay, DOP receptor, rat brain membranes ([3H][Ile5,6]deltorphin II); conditions: for Selectivity ratio DOP/MOP: Ki ratio, rat brain membranes
T2 construct: from tissue; host or cells: Sprague-Dawley rat brain membranes

[3] = molecular target: T3, human KOP receptors (CHOhKOP) (Homo sapiens, UniProt P41145); assay: Binding assay in CHOhKOP cell membranes ([3H]diprenorphine)
T3 construct: expressed in transfected cells

[4] = molecular target: T4, recombinant rat MOP receptor expressed in C6 glioma cells (Rattus norvegicus, UniProt P33535); assay: Binding assay in C6rMOP cell membranes ([3H]diprenorphine)
T4 construct: expressed in transfected cells

mice [5] = assay: Tail-flick test; type: in vivo; conditions: s.c.; for ED50: Mus musculus, sc, 20 min, tail-flick test, 20 min after dosing, read-out: ED50 (95% CL) TF
[6] = molecular target: T5, rat DOP receptors (C6rDOP) (Rattus norvegicus, UniProt P33533); assay: Binding assay in C6rDOP cell membranes ([3H]diprenorphine)
T5 construct: expressed in transfected cells

MOP receptor [7] = molecular target: T6, MOP receptor (Rattus norvegicus, UniProt P33535); assay: Radioligand binding assay, MOP receptor, rat brain membranes ([3H]DAMGO)
T6 construct: from tissue; host or cells: Sprague-Dawley rat brain membranes

human MOP receptors [8] = molecular target: T7, human MOP receptors (Homo sapiens, UniProt P35372); assay: [35S]GTPγS functional assay in CHOhMOP cell membranes; type: biochemical; parameters: expressed in transfected cells; host or cells: CHO cells; conditions: for Emax: read-out: [35S]GTPγS functional assay Emax
mice [9] = assay: PPQ abdominal stretching test; type: in vivo; conditions: for ED50: Mus musculus, sc, PPQ abdominal stretching test, read-out: ED50 (95% CL) PPQ; for Times more active than oxycodone (antinociceptive potency): maximum over hot-plate, tail-flick and PPQ assays
human MOP receptors [10] = molecular target: T7, human MOP receptors; assay: Calcium mobilization assay in CHOhMOP cells expressing Gαqi5; type: cell-based; parameters: expressed in transfected cells; host or cells: CHO cells stably co-expressing Gαqi5; conditions: for Emax: read-out: Calcium mobilization assay Emax
mice [11] = assay: Hot-plate test; type: in vivo; conditions: s.c.; for ED50: Mus musculus, sc, 0.5 h, hot-plate test, 30 min after dosing, read-out: ED50 (95% CL) HP
DOP receptor [12] = molecular target: T2, DOP receptor; conditions: cited from earlier work; for Ki: read-out: Ki DOP
mice [13] = system: mice; parameters: method as in PMID 16033285; conditions: s.c., hot-plate test, ref [30]; cited from earlier work
mice [14] = system: mice; parameters: method as in PMID 16033285; conditions: s.c., tail-flick test, ref [30]; cited from earlier work
KOP receptor [15] = molecular target: T1, KOP receptor; conditions: cited from earlier work; for Ki: read-out: Ki KOP
MOP receptor [16] = molecular target: T6, MOP receptor; conditions: read-out: Ki MOP; cited from earlier work
mice [17] = system: mice; parameters: method as in PMID 16033285; conditions: s.c., PPQ abdominal stretching test, ref [30]; cited from earlier work
[18] = system: C6rMOP cells (rat MOP receptor); parameters: method as in PMID 16291875; conditions: ref [36], read-out: Potency EC50; cited from earlier work
human MOP receptor = system: human MOP receptor; parameters: method as in PMID 22002663; conditions: HEK293 cells co-expressing human MOP receptor and Gαqi3, ref [37], cited from earlier work
[19] = system: human MOP receptor in CHO cells; parameters: method as in PMID 14600248; conditions: CHOhMOP, Thompson et al.; ref [35]; read-out: [35S]GTPγS binding EC50; cited from earlier work
animals = conditions: ref [14]; cited from earlier work
MOP receptor [20] = system: MOP receptor; parameters: method as in PMID 15857143; conditions: ref [13]; cited from earlier work
[21] = absolute stimulation, set as 100%

T1 sequence (P34975 whole entry): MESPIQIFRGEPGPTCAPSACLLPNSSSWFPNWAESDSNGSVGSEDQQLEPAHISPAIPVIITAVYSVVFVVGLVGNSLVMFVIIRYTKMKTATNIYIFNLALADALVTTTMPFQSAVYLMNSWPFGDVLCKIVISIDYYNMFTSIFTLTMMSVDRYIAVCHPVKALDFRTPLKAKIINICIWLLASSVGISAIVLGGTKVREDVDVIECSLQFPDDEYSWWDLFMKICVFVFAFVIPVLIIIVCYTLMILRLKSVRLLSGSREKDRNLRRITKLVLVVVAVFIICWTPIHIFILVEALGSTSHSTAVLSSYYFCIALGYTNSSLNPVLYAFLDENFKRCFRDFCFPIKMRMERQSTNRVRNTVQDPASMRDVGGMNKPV
T7 sequence (P35372 whole entry): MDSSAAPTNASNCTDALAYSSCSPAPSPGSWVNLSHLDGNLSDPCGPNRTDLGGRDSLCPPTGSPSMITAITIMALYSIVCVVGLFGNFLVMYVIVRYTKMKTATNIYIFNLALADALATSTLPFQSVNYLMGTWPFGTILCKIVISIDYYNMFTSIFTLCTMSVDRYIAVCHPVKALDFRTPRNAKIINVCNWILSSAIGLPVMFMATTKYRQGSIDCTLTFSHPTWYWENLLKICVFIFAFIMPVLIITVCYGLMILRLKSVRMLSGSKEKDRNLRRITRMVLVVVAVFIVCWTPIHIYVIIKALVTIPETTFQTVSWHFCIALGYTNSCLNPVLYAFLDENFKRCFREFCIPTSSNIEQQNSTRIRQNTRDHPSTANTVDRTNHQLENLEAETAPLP
T2 sequence (P33533 whole entry): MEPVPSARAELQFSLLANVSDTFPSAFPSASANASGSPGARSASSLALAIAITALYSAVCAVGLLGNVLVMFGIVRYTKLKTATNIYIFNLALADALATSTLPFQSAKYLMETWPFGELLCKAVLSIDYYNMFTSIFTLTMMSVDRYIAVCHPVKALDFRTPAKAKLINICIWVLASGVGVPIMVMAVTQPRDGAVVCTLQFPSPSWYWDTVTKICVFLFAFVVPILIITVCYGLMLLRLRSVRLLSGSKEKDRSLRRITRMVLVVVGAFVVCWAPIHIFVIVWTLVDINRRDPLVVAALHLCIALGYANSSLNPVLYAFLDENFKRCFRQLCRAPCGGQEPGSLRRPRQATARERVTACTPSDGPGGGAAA
T6 sequence (P33535 whole entry): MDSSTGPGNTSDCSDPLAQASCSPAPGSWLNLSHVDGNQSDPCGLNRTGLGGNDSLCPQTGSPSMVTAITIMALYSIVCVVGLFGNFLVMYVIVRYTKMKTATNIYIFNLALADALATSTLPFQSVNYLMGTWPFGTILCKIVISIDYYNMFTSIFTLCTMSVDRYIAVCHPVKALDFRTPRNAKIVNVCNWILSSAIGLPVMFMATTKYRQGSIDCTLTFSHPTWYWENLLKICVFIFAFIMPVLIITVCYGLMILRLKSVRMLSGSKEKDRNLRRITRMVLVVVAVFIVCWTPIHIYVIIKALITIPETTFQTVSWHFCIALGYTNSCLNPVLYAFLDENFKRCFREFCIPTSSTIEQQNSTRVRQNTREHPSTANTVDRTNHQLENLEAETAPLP
T3 sequence (P41145 whole entry): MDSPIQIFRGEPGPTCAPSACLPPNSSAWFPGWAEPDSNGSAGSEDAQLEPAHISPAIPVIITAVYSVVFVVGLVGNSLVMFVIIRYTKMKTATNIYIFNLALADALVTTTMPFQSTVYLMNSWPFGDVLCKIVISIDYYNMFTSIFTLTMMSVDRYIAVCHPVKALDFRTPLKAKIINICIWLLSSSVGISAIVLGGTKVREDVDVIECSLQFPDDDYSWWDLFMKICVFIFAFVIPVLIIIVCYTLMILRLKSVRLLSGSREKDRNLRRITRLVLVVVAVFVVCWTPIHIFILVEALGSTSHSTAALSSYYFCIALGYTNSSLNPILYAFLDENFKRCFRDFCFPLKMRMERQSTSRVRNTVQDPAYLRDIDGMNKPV
T5 sequence (P33533 whole entry): as the sequence (P33533 whole entry) above
T4 sequence (P33535 whole entry): as the sequence (P33535 whole entry) above

| SMILES | Ki (KOP receptor [1]) [nM] | Selectivity ratio KOP/MOP (KOP receptor [1]) | Ki (DOP receptor [2]) [nM] | Selectivity ratio DOP/MOP (DOP receptor [2]) | ED50 (mice [5]) [mg/kg] | Ki (MOP receptor [7]) [nM] | EC50 (human MOP receptors [8]) [nM] | Emax (human MOP receptors [8]) [%] | ED50 (mice [9]) [mg/kg] | EC50 (human MOP receptors [10]) [nM] | Emax (human MOP receptors [10]) [%] | ED50 (mice [11]) [mg/kg] | Ki (DOP receptor [12]) [nM] | ED50 (95% CL) HP (mice [13]) | ED50 (95% CL) TF (mice [14]) | Times greater potency than oxycodone and 14-OMC, calcium mobilization (human MOP receptors [10]; CHOhMOP Gαqi5 cells) | Ki (KOP receptor [15]) [nM] | ED50 (95% CL) PPQ (mice [17]) | further results |
| --- | --- | --- | --- | --- | --- | --- | --- | --- | --- | --- | --- | --- | --- | --- | --- | --- | --- | --- | --- |
| COc1ccc2c(c1OC)C13C=C(C#N)C=CC1(OC)C(C2)N(C)CC3 (stereo not shown) [compound 5] | 200 ± 40 | 370 | 30.3 ± 2.9 | 56 | 0.04 | 0.54 ± 0.04 | 1.64 ± 0.19 | 133 ± 7 | 0.0023 | 21.7 ± 5.5 | 70 ± 8 | 0.08 | – | – | – | – | – | – | Ki [3]: 229 nM; MOP selectivity vs. KOP ([3]; recombinant receptors, CHOhKOP vs C6rMOP): 327 times; Ki [4]: 0.7 nM; Ki [6]: 56 nM; MOP selectivity vs. DOP ([6]; recombinant receptors, C6rDOP vs C6rMOP): 80 times; Times more active than oxycodone (antinociceptive potency) (mice [9]; s.c.): up to 165 times; Times more potent than DAMGO, calcium mobilization (human MOP receptors [10]; CHOhMOP Gαqi5 cells): about 2 times |
| COc1ccc2c(c1O)C13C=C(C#N)CCC1(OC)C(C2)N(C)CC3 (stereo not shown) [compound 3] | – | – | – | – | – | – | 26.2 ± 1.7 | 85 ± 3 | – | 140 ± 21 | 61 ± 6 | – | 197 ± 29 | 0.25 (0.11-0.59) mg/kg, s.c. | 0.21 (0.11-0.40) mg/kg, s.c. | up to 10 times | 378 ± 155 | 0.11 (0.072-0.16) mg/kg, s.c. | Selectivity ratio DOP/MOP (DOP receptor [12]): 37; Selectivity ratio KOP/MOP (KOP receptor [15]): 70; Ki (MOP receptor [16]): 5.38 ± 0.42 nM |
| COc1ccc2c3c1O[C@H]1C(=O)CC[C@@]4(O)[C@@H](C2)N(C)CC[C@]314 [Oxycodone, oxycodone, reference compound] | – | – | – | – | – | – | – | 92 ± 9 | – | – | 38 ± 3 | – | – | 1.37 (0.48-3.92) mg/kg, s.c. | 0.94 (0.40-2.30) mg/kg, s.c. | – | – | 0.38 (0.19-0.75) mg/kg, s.c. | EC50 [18]: 373 nM; Efficacy, changes in intracellular calcium levels (human MOP receptor): 100%; EC50 (human MOP receptor; read-out: Potency, changes in intracellular calcium levels): 1740 nM; EC50 [19]: 1400 nM |
| COc1ccc2c(c1OC)C13C=C(C(N)=O)CCC1(OC)C(C2)N(C)CC3 (stereo not shown) [compound 4] | 105 ± 45 | 65 | 28.8 ± 2.3 | 18 | 1.34 | 1.61 ± 0.05 | 25.6 ± 9.5 | 107 ± 26 | 0.18 | 56.1 ± 11.3 | 59 ± 8 | 1.3 | – | – | – | – | – | – | Times less active than compound 1, hot-plate (mice [11]): about 3 times |
| COc1ccc2c3c1OC1C(C#N)=CCC4(OC)C(C2)N(C)CCC314 (stereo not shown) [compound 6] | 194 ± 68 | 26 | 239 ± 40 | 32 | 0.12 | 7.39 ± 0.34 | 25.1 ± 3.6 | 121 ± 27 | 0.003 | 173 ± 21 | 84 ± 10 | 0.089 | – | – | – | up to 10 times | – | – | Times less potent than analogue 5, tail-flick (mice [5]): 3 times; Times more potent than 14-OMC, tail-flick (mice [5]): 7 times; Times more potent than analogue 3, tail-flick (mice [5]): ~2 times; Increase in binding to the MOP receptor vs 6-keto counterpart 14-OMC (MOP receptor [7]; rat brain membranes): about 5 times; Times more potent than 14-OMC, PPQ (mice [9]; s.c.): 72 times; Times more potent than analogue 3, PPQ (mice [9]; s.c.): ~37 times; Times more active than oxycodone (antinociceptive potency) (mice [9]; s.c.): up to 165 times; Times more potent than 14-OMC, hot-plate (mice [11]): 11 times; Times more potent than analogue 3, hot-plate (mice [11]): ca. 3 times |
| COC12CCC(=O)C3Oc4c(O)ccc5c4C31CCN(C)C2C5 (stereo not shown) [14-O-methyloxymorphone] | – | – | – | – | – | – | – | – | – | – | – | – | – | – | – | – | – | – | Times more potent in inducing an antinociceptive effect than oxymorphone (animals): up to 40 times; Times increased binding affinity at the MOP receptor vs oxymorphone (MOP receptor [20]): 9 times |
| COc1ccc2c3c1O[C@H]1C(=O)CC[C@@]4(OC)[C@@H](C2)N(C)CC[C@]314 [14-OMC, 14-O-methyloxycodone, reference compound] | 454 ± 6 | 13 | 116 ± 15 | 3 | 0.8 | 35.3 ± 2.1 | 325 ± 94 | 137 ± 55 | 0.22 | 973 ± 204 | 72 ± 7 | 1.02 | – | – | – | – | – | – | – |
| COc1ccc2c(c1OC)C13C=C(C#N)CCC1(O)C(C2)N(C)CC3 (stereo not shown) [compound 2] | – | – | – | – | – | – | 42.5 ± 14.9 | 97 ± 15 | – | 116 ± 9 | 69 ± 7 | – | 107 ± 5 | 0.15 (0.054-0.41) mg/kg, s.c. | 0.12 (0.061-0.23) mg/kg, s.c. | up to 10 times | 364 ± 7 | 0.026 (0.012-0.055) mg/kg, s.c. | Selectivity ratio DOP/MOP (DOP receptor [12]): 44; Selectivity ratio KOP/MOP (KOP receptor [15]): 149; Ki (MOP receptor [16]): 2.44 ± 0.13 nM |
| COc1ccc2c(c1O)C13C=C(C#N)CCC1(O)C(C2)N(C)CC3 (stereo not shown) [compound 1] | – | – | – | – | – | – | 273 ± 24 | 98 ± 4 | – | 957 ± 233 | 57 ± 4 | – | 498 ± 79 | 0.50 (0.12-2.02) mg/kg, s.c. | 1.88 (1.25-2.83) mg/kg, s.c. | up to 10 times | 1650 | 0.18 (0.076-0.42) mg/kg, s.c. | – |
| C[C@@H](NC(=O)[C@@H](N)Cc1ccc(O)cc1)C(=O)NCC(=O)N(C)[C@@H](Cc1ccccc1)C(=O)NCCO [DAMGO, [D-Ala^2,Me-Phe^4,Gly-ol^5]enkephalin, reference compound] | – | – | – | – | – | – | – | – | – | – | – | – | – | – | – | – | – | – | Maximal DAMGO stimulation in [35S]GTPγS functional assay (human MOP receptors [8]; [21]): 225 ± 32%; Maximal DAMGO stimulation in calcium mobilization assay (human MOP receptors [10]; [21]): 217 ± 21% |
